Values after ≈ are worked out from the molar mass of the structure shown.
Assays:
[1] = tested on: P. aeruginosa PAO280; experiment: MIC determination, P. aeruginosa PAO280; format: cell-based; settings: Pseudomonas aeruginosa, PAO280, read-out: MIC (ug/mL) P. aeruginosa PAO280
Procedure: (§1) MIC determinations: The in vitro antibacterial activity of compounds described in the Examples was evaluated by minimum inhibitory concentration (MIC) testing according to Clinical and Laboratory Standards Institute (CLSI, formerly NCCLS) guidelines. See: Clinical and Laboratory Standards Institute. Methods for Dilution Antimicrobial Susceptibility Tests for Bacteria that Grow Aerobically; Approved Standard-Seventh Edition. CLSI document M7-A7 [ISBN 1-56238-587-9]. Clinical and Laboratory Standards Institute, 940 West Valley Road, Suite 1400, Wayne, Pa. 19087-1898 USA, 2006; also Clinical and Laboratory Standards Institute. Performance Standards for Antimicrobial Susceptibility Testing; Eighteenth Informational Supplement. CLSI document M100-S18 [ISBN1-56238-653-0]. Clinical and Laboratory Standards Institute.
(§2) The following bacterial strains were used:
Pseudomonas aeruginosa PA0280: lacks efflux pumps MexAB-oprM, MexXY and MexZ

[2] = tested on: Enterobacter aerogenes; experiment: MIC determination, E. aerogenes; format: cell-based; settings: Klebsiella aerogenes; quinolone-resistant, ESBL-expressing clinical isolate; * = arithmetic mean of 2-6 MIC determinations; read-out: MIC (ug/mL) E. aerogenes
Procedure: as §1, §2
Enterobacter aerogenes: Quinolone-resistant isolate, expresses extended-spectrum beta-lactamases (ESBL), clinical isolate;

[3] = tested on: P. aeruginosa UI-18; experiment: MIC determination, P. aeruginosa UI-18; format: cell-based; settings: Pseudomonas aeruginosa, UI18; wild-type; * = arithmetic mean of 2-6 MIC determinations; read-out: MIC (ug/mL) P. aeruginosa UI-18
Procedure: as §1, §2
P. aeruginosa UI-18: Wild-type;

[4] = tested on: Acinetobacter baumanii/haemolyticus; experiment: MIC determination, A. baumanii/haemolyticus; format: cell-based; settings: Acinetobacter baumannii; multidrug-resistant clinical isolate; * = arithmetic mean of 2-6 MIC determinations; read-out: MIC (ug/mL) A. baumanii/haemolyticus
Procedure: as §1, §2
Acinetobacter baumanii/haemolyticus: Multidrug-resistant clinical isolate;

[5] = tested on: Escherichia coli EC-1; experiment: MIC determination, E. coli EC-1; format: cell-based; settings: EC1, EC-1: VOGEL, * = arithmetic mean of 2-6 MIC determinations, read-out: MIC (ug/mL) E. coli EC-1
Procedure: as §1, §2
Escherichia coli EC-1: VOGEL;

[6] = tested on: Klebsiella pneumoniae; experiment: MIC determination, K. pneumoniae; format: cell-based; settings: ciprofloxacin-resistant, ESBL-expressing clinical isolate, * = arithmetic mean of 2-6 MIC determinations, read-out: MIC (ug/mL) K. pneumoniae
Procedure: as §1, §2
Klebsiella pneumoniae: Ciprofloxacin-resistant isolate, expresses extended-spectrum beta-lactamases (ESBL), clinical isolate;

[7] = molecular target: T1, Pseudomonas aeruginosa LpxC enzyme (Pseudomonas aeruginosa, UniProt P47205); experiment: IC50 assay, LpxC enzyme from P. aeruginosa; format: biochemical; settings: 0.5 nM enzyme, 25° C., pH 8.0, 20 min; ** = average of 2-8 assays
T1 construct: made in house; host or cells: E. coli
T1 sequence (P47205 1-303): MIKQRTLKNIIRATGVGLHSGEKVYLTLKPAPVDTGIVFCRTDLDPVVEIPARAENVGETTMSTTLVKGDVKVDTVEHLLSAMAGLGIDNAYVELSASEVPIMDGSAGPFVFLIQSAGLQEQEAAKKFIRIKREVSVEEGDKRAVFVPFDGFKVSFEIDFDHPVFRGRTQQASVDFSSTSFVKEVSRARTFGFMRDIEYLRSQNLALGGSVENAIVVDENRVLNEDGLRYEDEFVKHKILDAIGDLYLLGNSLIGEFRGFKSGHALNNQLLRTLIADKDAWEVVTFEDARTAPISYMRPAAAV
Procedure: IC50 assay, LpxC enzyme from P. aeruginosa: IC50 determination in the LpxC enzyme assay was carried out in a similar manner to that described by S. A. Hyland et al., J. Bacteriology 1997, 179, 2029-2037. [See also T. Kline et al., J. Medicinal Chemistry 2002, 45, 3112-3129.] Briefly, Pseudomonas aeruginosa LpxC enzyme (0.5 nM) purified from E. coli-overexpressing bacteria was incubated at 25° C. in a final volume of 25 ul containing 0.5 uM UDP-3-O—(R-3-hydroxydecanoyl)-N—[^3H-acetyl]glucosamine (B. D. Maxwell and J. C. Bronstein, J. Labeled Compounds and Radiopharmaceuticals 2005, 48, 1049-1054), 1 mg/ml BSA, and 50 mM sodium phosphate buffer, pH 8.0 in the presence and absence of inhibitor compound. At the end of 20 min, 90 ul of a pre-mixed 3% suspension of activated charcoal in 100 mM sodium acetate, pH 7.5, was added to stop the enzyme reaction. The contents of the well were transferred to a filter plate and filtered, and an aliquot of the filtrate was quantitated by liquid scintillation spectrometry. A no-enzyme control was subtracted in order to eliminate background counts.

[8] = tested on: Staphylococcus aureus ATCC 29213; experiment: MIC determination, S. aureus ATCC 29213; format: cell-based; settings: ATCC29213, CLSI quality control reference strain, * = arithmetic mean of 2-6 MIC determinations, read-out: MIC (ug/mL) S. aureus ATCC 29213
Procedure: as §1, §2
Staphylococcus aureus ATCC 29213: CLSI quality control reference strain; and […]

| SMILES | MIC [1] [µg/mL] | MIC [2] [µg/mL] | MIC [3] [µg/mL] | MIC [4] [µg/mL] | MIC [5] [µg/mL] | MIC [6] [µg/mL] | IC50 [7] [µM] | MIC [8] [µg/mL] |
| --- | --- | --- | --- | --- | --- | --- | --- | --- |
| Cc1ccc(-c2ccc(CO[C@](C)(C(=O)NO)[C@@H](O)c3cc(CO)on3)cc2)cc1 [Example 37, (2S,3S)-N,3-dihydroxy-3-[5-(hydroxymethyl)isoxazol-3-yl]-2-methyl-2-[(4′-methylbiphenyl-4-yl)methoxy]propanamide] | 0.015 (≈ 0.0364 µM) | 64 (≈ 155 µM) | 0.75 (≈ 1.82 µM) | 64 (≈ 155 µM) | 8 (≈ 19.4 µM) | 16 (≈ 38.8 µM) | 0.000476 | > 64 |
| Cc1cc([C@H](O)[C@](C)(OCc2ccc(-c3ccc(F)cc3)cc2)C(=O)NO)no1 [Example 38, (2S,3S)-2-[(4′-fluorobiphenyl-4-yl)methoxy]-N,3-dihydroxy-2-methyl-3-(5-methylisoxazol-3-yl)propanamide] | 0.015 (≈ 0.0375 µM) | 64 (≈ 160 µM) | 1 (≈ 2.5 µM) | 4 (≈ 9.99 µM) | 2 (≈ 4.99 µM) | 8 (≈ 20 µM) | 0.000132 | > 64 |
| Cc1ccc(-c2ccc(CO[C@](C)(C(=O)NO)[C@@H](O)c3cc(C)on3)cc2)cc1 [Example 39, (2S,3S)-N,3-dihydroxy-2-methyl-2-[(4′-methylbiphenyl-4-yl)methoxy]-3-(5-methylisoxazol-3-yl)propanamide] | 0.03 (≈ 0.0757 µM) | 32 (≈ 80.7 µM) | 1 (≈ 2.52 µM) | 4 (≈ 10.1 µM) | 2 (≈ 5.04 µM) | 4 (≈ 10.1 µM) | 0.000589 | > 64 |
| Cc1ccc(-c2ccc(CO[C@](C)(C(=O)NO)[C@@H](O)c3cc(CO)on3)cc2)nc1 [Example 40, (2S,3S)-N,3-dihydroxy-3-[5-(hydroxymethyl)isoxazol-3-yl]-2-methyl-2-{[4-(5-methylpyridin-2-yl)benzyl]oxy}propanamide] | 0.125 (≈ 0.302 µM) | > 64 | 16 (≈ 38.7 µM) | > 64 | > 64 | > 64 | 0.00081 | > 64 |
| C[C@@](OCc1ccc(-c2ccc(C(F)(F)F)cn2)cc1)(C(=O)NO)[C@@H](O)c1cc(CO)on1 [Example 41, (2S,3S)-N,3-dihydroxy-3-[5-(hydroxymethyl)isoxazol-3-yl]-2-methyl-2-({4-[5-(trifluoromethyl)pyridin-2-yl]benzyl}oxy)propanamide] | 0.25 (≈ 0.535 µM) | > 64 | 32 (≈ 68.5 µM) | > 64 | > 64 | > 64 | 0.00116 | > 64 |
| C[C@@](OCc1ccc(-c2ccc(C(F)(F)F)cc2)cc1)(C(=O)NO)[C@@H](O)c1cc(CO)on1 [Example 42, (2S,3S)-N,3-dihydroxy-3-[5-(hydroxymethyl)isoxazol-3-yl]-2-methyl-2-{[4′-(trifluoromethyl)biphenyl-4-yl]methoxy}propanamide] | < 0.06 | > 32 | 2 (≈ 4.29 µM) | 32 (≈ 68.6 µM) | 16 (≈ 34.3 µM) | > 32 | 0.000372 | > 32 |
| C[C@@](OCc1ccc(-c2ccccc2)cc1)(C(=O)NO)[C@@H](O)c1cc(S(C)(=O)=O)on1 [Example 43, (2S,3S)-2-(biphenyl-4-ylmethoxy)-N,3-dihydroxy-2-methyl-3-[5-(methylsulfonyl)isoxazol-3-yl]propanamide] | 0.03 (≈ 0.0672 µM) | 64 (≈ 143 µM) | 2 (≈ 4.48 µM) | 64 (≈ 143 µM) | 4 (≈ 8.96 µM) | 16 (≈ 35.8 µM) | 0.000686 | 64 (≈ 143 µM) |
